Laboratory results reported in ChEMBL document CHEMBL1147267, “New strongylophorines from the Okinawan marine sponge Petrosia (Strongylophora) corticata” (J Nat Prod, 2003).

What follows are compounds tested on HeLa (assay: Cytotoxicity against human HeLa cells).
Format: functional, cell-based

Question: With `C[C@@]12CC[C@@H]3[C@]4(CCC[C@]3(C)C(=O)OC4)[C@H]1CC[C@]1(C)Oc3ccc(O)cc3C[C@@H]21` [STRONGYLOPHORIN 2] as the compound, how does the IC50 read?
Answer: Its IC50 is over 100 µM.

Question: Which IC50 does the source give for `C[C@]12CCC[C@](C)(C(=O)O)[C@@H]1CC[C@]1(C)[C@@H]2CC[C@]2(C)Oc3ccc(O)cc3C[C@@H]12` [Strongylophorin-3] here?
Answer: The IC50 was 45.2 µM.

Question: How did the IC50 turn out when `C[C@]12CCC[C@](C)(C=O)[C@@H]1CC[C@]1(C)[C@@H]2CC[C@]2(C)Oc3ccc(O)cc3C[C@@H]12` [Strongylophorin-4] was run?
Answer: Its IC50 is 50.5 µM.

Question: `CC1(C)CCC[C@]2(C)[C@H]3CC[C@]4(C)Oc5ccc(O)cc5C[C@H]4[C@]3(C)CC[C@@H]12` [Strongylophorin-22] was tested. Which IC50 did it give?
Answer: The IC50 was 26.6 µM.

Question: Which IC50 does the source give for `CC1(C)CCC[C@@]2(CO)[C@H]1CC[C@]1(C)[C@@H]2CC[C@]2(C)Oc3ccc(O)cc3C[C@@H]12` [Strongylophorin-23] here?
Answer: The IC50 was 62 µM.

Question: For `COc1ccc2c(c1)C[C@H]1[C@]3(C)CC[C@@H]4[C@](C)(CCC[C@]4(C)C(=O)O)[C@H]3CC[C@]1(C)O2` [Strongylophorine-1], which IC50 is on record?
Answer: The IC50 was 49.1 µM.

Question: Which IC50 does the source give for `CC1(C)CCC[C@@]2(C=O)[C@H]1CC[C@]1(C)[C@@H]2CC[C@]2(C)Oc3ccc(O)cc3C[C@@H]12` [Strongylophorine-24] here?
Answer: Its IC50 is over 100 µM.
